Source: PubChem BioAssay (NCI)
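Here, GI50 denotes the concentration required for 50% inhibition of growth. TGI: concentration producing complete growth inhibition.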

Columns and labels:
Assay in all cases: inhibition of tumour cell growth, NCI panel, 384-well format
SNB-19 CNS = tested on: SNB-19 CNS
MDA-MB-231 breast = tested on: MDA-MB-231 breast
OVCAR-4 ovarian = tested on: OVCAR-4 ovarian
SK-MEL-5 melanoma = tested on: SK-MEL-5 melanoma
MDA-MB-468 breast = tested on: MDA-MB-468 breast
A498 renal = tested on: A498 renal
SNB-75 CNS = tested on: SNB-75 CNS
BT-549 breast = tested on: BT-549 breast
NCI-H322M lung = tested on: NCI-H322M lung
HCT-116 colon = tested on: HCT-116 colon
SF-539 CNS = tested on: SF-539 CNS
HOP-62 NSCLC = tested on: HOP-62 NSCLC
MALME-3M melanoma = tested on: MALME-3M melanoma
HT29 colon = tested on: HT29 colon
RPMI-8226 leukemia = tested on: RPMI-8226 leukemia
HOP-92 NSCLC = tested on: HOP-92 NSCLC
NCI-H226 lung = tested on: NCI-H226 lung
NCI/ADR-RES ovarian = tested on: NCI/ADR-RES ovarian
MOLT-4 leukemia = tested on: MOLT-4 leukemia
COLO 205 colon = tested on: COLO 205 colon
SR leukemia = tested on: SR leukemia
UO-31 renal = tested on: UO-31 renal
SN12C renal = tested on: SN12C renal
K-562 leukemia = tested on: K-562 leukemia
786-0 renal = tested on: 786-0 renal
LOX IMVI melanoma = tested on: LOX IMVI melanoma
PC-3 prostate = tested on: PC-3 prostate
HCC-2998 colon = tested on: HCC-2998 colon
IGROV1 ovarian = tested on: IGROV1 ovarian
SK-MEL-28 melanoma = tested on: SK-MEL-28 melanoma
TK-10 renal = tested on: TK-10 renal
NCI-H23 lung = tested on: NCI-H23 lung
DU-145 prostate = tested on: DU-145 prostate
T-47D breast = tested on: T-47D breast
SK-OV-3 ovarian = tested on: SK-OV-3 ovarian
OVCAR-8 ovarian = tested on: OVCAR-8 ovarian
SW-620 colon = tested on: SW-620 colon
SF-295 CNS = tested on: SF-295 CNS
MDA-MB-435 melanoma = tested on: MDA-MB-435 melanoma
ACHN renal = tested on: ACHN renal
RXF 393 renal = tested on: RXF 393 renal
KM12 colon = tested on: KM12 colon
CAKI-1 renal = tested on: CAKI-1 renal
EKVX NSCLC = tested on: EKVX NSCLC
OVCAR-3 ovarian = tested on: OVCAR-3 ovarian
M14 melanoma = tested on: M14 melanoma
NCI-H522 lung = tested on: NCI-H522 lung
NCI-H460 NSCLC = tested on: NCI-H460 NSCLC
MCF7 breast = tested on: MCF7 breast
HS 578T breast = tested on: HS 578T breast
U251 glioblastoma = tested on: U251 glioblastoma
HCT-15 colon = tested on: HCT-15 colon
SF-268 CNS = tested on: SF-268 CNS
CCRF-CEM leukemia = tested on: CCRF-CEM leukemia
UACC-257 melanoma = tested on: UACC-257 melanoma
HL-60(TB) leukemia = tested on: HL-60(TB) leukemia
OVCAR-5 ovarian = tested on: OVCAR-5 ovarian
A549 NSCLC = tested on: A549 NSCLC

## CN1CCN(c2ccc3nc(-c4c(N)c5c(F)cccc5[nH]c4=O)[nH]c3c2)CC1
SNB-19 CNS
  GI50: 1480 nM
  TGI: 3120 nM
MDA-MB-231 breast
  GI50: 1840 nM
  TGI: 4050 nM
OVCAR-4 ovarian
  GI50: 1530 nM
  TGI: 2960 nM
SK-MEL-5 melanoma
  GI50: 1080 nM
  TGI: 2280 nM
MDA-MB-468 breast
  GI50: 1080 nM
  TGI: 2320 nM
A498 renal
  GI50: 472 nM
  TGI: 1770 nM
SNB-75 CNS
  GI50: 493 nM
  TGI: 1800 nM
BT-549 breast
  GI50: 451 nM
  TGI: 1700 nM
NCI-H322M lung
  GI50: 1150 nM
  TGI: 2900 nM
HCT-116 colon
  GI50: 624 nM
  TGI: 1900 nM
SF-539 CNS
  GI50: 293 nM
  TGI: 1160 nM
HOP-62 NSCLC
  GI50: 1080 nM
  TGI: 2320 nM
MALME-3M melanoma
  GI50: 495 nM
  TGI: 1670 nM
HT29 colon
  GI50: 1240 nM
  TGI: 2550 nM
RPMI-8226 leukemia
  GI50: 329 nM
  TGI: 1240 nM
HOP-92 NSCLC
  GI50: 645 nM
  TGI: 2000 nM
NCI-H226 lung
  GI50: 545 nM
  TGI: 1980 nM
NCI/ADR-RES ovarian
  GI50: 1610 nM
  TGI: 3060 nM
MOLT-4 leukemia
  GI50: 171 nM
  TGI: 310 nM
COLO 205 colon
  GI50: 1010 nM
  TGI: 2170 nM
SR leukemia
  GI50: 170 nM
  TGI: 337 nM
UO-31 renal
  GI50: 397 nM
  TGI: 1600 nM
SN12C renal
  GI50: 442 nM
  TGI: 1590 nM
K-562 leukemia
  GI50: 441 nM
  TGI: 1540 nM
786-0 renal
  GI50: 1070 nM
  TGI: 2300 nM
LOX IMVI melanoma
  GI50: 938 nM
  TGI: 2130 nM
PC-3 prostate
  GI50: 1080 nM
  TGI: 3830 nM
HCC-2998 colon
  GI50: 744 nM
  TGI: 2020 nM
IGROV1 ovarian
  GI50: 276 nM
  TGI: 1350 nM
SK-MEL-28 melanoma
  GI50: 1780 nM
  TGI: 3170 nM
TK-10 renal
  GI50: 1250 nM
  TGI: 3220 nM
NCI-H23 lung
  GI50: 1150 nM
  TGI: 2440 nM
DU-145 prostate
  GI50: 779 nM
  TGI: 2100 nM
T-47D breast
  GI50: 1700 nM
  TGI: 3100 nM
SK-OV-3 ovarian
  GI50: 325 nM
  TGI: 1470 nM
OVCAR-8 ovarian
  GI50: 1240 nM
  TGI: 2530 nM
SW-620 colon
  GI50: 476 nM
  TGI: 1640 nM
SF-295 CNS
  GI50: 1330 nM
  TGI: 2610 nM
MDA-MB-435 melanoma
  GI50: 1280 nM
  TGI: 2560 nM
ACHN renal
  GI50: 344 nM
  TGI: 1500 nM
RXF 393 renal
  GI50: 340 nM
  TGI: 1370 nM
KM12 colon
  GI50: 33.1 nM
  TGI: 1450 nM
CAKI-1 renal
  GI50: 265 nM
  TGI: 1320 nM
EKVX NSCLC
  GI50: 1040 nM
  TGI: 2390 nM
OVCAR-3 ovarian
  GI50: 1060 nM
  TGI: 2260 nM
M14 melanoma
  GI50: 340 nM
  TGI: 1510 nM
NCI-H522 lung
  GI50: 990 nM
  TGI: 2160 nM
NCI-H460 NSCLC
  GI50: 390 nM
  TGI: 1430 nM
MCF7 breast
  GI50: 1040 nM
  TGI: 2230 nM
HS 578T breast
  GI50: 358 nM
  TGI: 1500 nM
U251 glioblastoma
  GI50: 714 nM
  TGI: 2010 nM
HCT-15 colon
  GI50: 417 nM
  TGI: 1630 nM
SF-268 CNS
  GI50: 1250 nM
  TGI: 2830 nM
CCRF-CEM leukemia
  GI50: 369 nM
  TGI: 1080 nM
UACC-257 melanoma
  GI50: 1150 nM
  TGI: 2380 nM
HL-60(TB) leukemia
  GI50: 357 nM
  TGI: 1290 nM
OVCAR-5 ovarian
  GI50: 1400 nM
  TGI: 3580 nM
A549 NSCLC
  GI50: 720 nM
  TGI: 1990 nM
